Source: PubChem BioAssay AID1845203 (Molecular Pharmacology Branch, DTP, NCI, 2023)
Values joined by “and” are separate entries in the source; they are usually repeats but may differ in a detail not shown here. Equal values may be shown once.

Tested on: G-401 tumor spheroids, viability % test/control
Experiment: Anticancer human tumor G-401 cell line growth inhibition;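 further: spheroids exposed to compound for 7 days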;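 on viability, T/C: 100% = DMSO vehicle-treated spheroids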
Details: spheroids with HUVEC and MSC; for viability, T/C: stronger effect = lower value; active means viability on the fitted dose curve at most 10% of control; inactive means the rest
Summary of the method: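 Complex spheroids of malignant cells with endothelial cells and mesenchymal stem cells; agents alone or combined, from near clinical Cmax (or 10 microM if unknown) down in half-log steps, 0.25% DMSO final.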

Cc1cc(C)c(CNC(=O)c2cc(-c3ccc(CN4CCOCC4)cc3)cc3c2cnn3C2CCCC2)c(=O)[nH]1
inactive: viability, T/C (compound 0.0316 µM) 106% and 105% and 95.6% | viability, T/C (compound 0.1 µM) 111% and 102% and 98.5% | viability, T/C (compound 0.316 µM) 108% and 107% and 106% | viability, T/C (compound 1 µM) 113% and 97.5% and 91.4% | viability, T/C (compound 3.16 µM) 98.1% and 91.5% and 77.8% | viability, T/C (compound 10 µM) 44.2% and 44.8% and 57.8%
8.84 µM and 8.81 µM and > 10 µM: IC50 (curve of compound)

[2H]c1nc(C)nc([2H])c1-c1cc(NC[C@@H](C)c2cccc3c(C(=O)NC)ccnc23)ncn1 + CC[C@@]1(O)C(=O)OCc2c1cc1n(c2=O)Cc2cc3c(CN(C)C)c(O)ccc3nc2-1
inactive: viability, T/C (second compound 0.003 µM, first compound 0.0316 µM) 83.5% | viability, T/C (second compound 0.003 µM, first compound 0.1 µM) 94.3% | viability, T/C (second compound 0.003 µM, first compound 0.316 µM) 85.3% | viability, T/C (second compound 0.003 µM, first compound 1 µM) 82.5% | viability, T/C (second compound 0.003 µM, first compound 3.16 µM) 75.9% | viability, T/C (second compound 0.003 µM, first compound 10 µM) 81% | viability, T/C (second compound 0.00949 µM, first compound 0.0316 µM) 45.4% | viability, T/C (second compound 0.00949 µM, first compound 0.1 µM) 47.3% | viability, T/C (second compound 0.00949 µM, first compound 0.316 µM) 47.1% | viability, T/C (second compound 0.00949 µM, first compound 1 µM) 40.1% | viability, T/C (second compound 0.00949 µM, first compound 3.16 µM) 38.9% | viability, T/C (second compound 0.00949 µM, first compound 10 µM) 30.1% | viability, T/C (second compound 0.03 µM, first compound 0.0316 µM) 14.6% | viability, T/C (second compound 0.03 µM, first compound 0.1 µM) 17.2% | viability, T/C (second compound 0.03 µM, first compound 0.316 µM) 14% | viability, T/C (second compound 0.03 µM, first compound 1 µM) 16.9% | viability, T/C (second compound 0.03 µM, first compound 3.16 µM) 15.4% | viability, T/C (second compound 0.03 µM, first compound 10 µM) 12.3%
> 10 µM: IC50 (curve of first compound, second compound 0.003 µM)
< 0.0316 µM: IC50 (curve of first compound, second compound 0.00949 µM) | IC50 (curve of first compound, second compound 0.03 µM) | IC50 (curve of first compound, second compound 0.0949 µM) | IC50 (curve of first compound, second compound 0.3 µM)
active: viability, T/C (second compound 0.0949 µM, first compound 0.0316 µM) 7.88% | viability, T/C (second compound 0.0949 µM, first compound 0.1 µM) 8.52% | viability, T/C (second compound 0.0949 µM, first compound 0.316 µM) 8.28% | viability, T/C (second compound 0.0949 µM, first compound 1 µM) 7.66% | viability, T/C (second compound 0.0949 µM, first compound 3.16 µM) 7.94% | viability, T/C (second compound 0.0949 µM, first compound 10 µM) 6.94% | viability, T/C (second compound 0.3 µM, first compound 0.0316 µM) 4.71% | viability, T/C (second compound 0.3 µM, first compound 0.1 µM) 4.82% | viability, T/C (second compound 0.3 µM, first compound 0.316 µM) 5.34% | viability, T/C (second compound 0.3 µM, first compound 1 µM) 5% | viability, T/C (second compound 0.3 µM, first compound 3.16 µM) 4.69% | viability, T/C (second compound 0.3 µM, first compound 10 µM) 5.48%
